Assay results from ChEMBL document CHEMBL4007488, “Amphiphilic Indole Derivatives as Antimycobacterial Agents: Structure-Activity Relationships and Membrane Targeting Properties” (J Med Chem, 2017).
≈ marks a conversion by molar mass, not a printed value.

Key:
[1] = test system: Mycobacterium tuberculosis variant bovis; assay: Antimycobacterial activity against Mycobacterium bovis BCG ATCC 35734 assessed as growth inhibition at 10 uM after 5 days relative to control; format: functional; details: ATCC 35734, 120 h, read-out: GI
[2] = test system: Mycobacterium tuberculosis variant bovis; assay: Antimycobacterial activity against Mycobacterium bovis BCG ATCC 35734 after 5 days by broth dilution method; format: functional; details: ATCC 35734, 120 h

CCCCCCCCn1cc(CNC23CC4CC(CC(C4)C2)C3)c2cccc(OC)c21
inhibition of growth at 10 µM [1]: 99% | MIC50 [2]: 3 µM (≈ 1.27 µg/mL) | MIC90 [2]: 8 µM (≈ 3.38 µg/mL)

CCCCCCCCn1cc(CN2CCCCCC2)c2cccc(OC)c21
inhibition of growth at 10 µM [1]: 99% | MIC50 [2]: 6 µM (≈ 2.22 µg/mL) | MIC90 [2]: 10 µM (≈ 3.71 µg/mL)

CCn1cc(CN2CCCCCC2)c2c(F)cccc21
inhibition of growth at 10 µM [1]: 99% | MIC50 [2]: > 50 µM | MIC90 [2]: > 50 µM

CCCCCCCCCCCCn1cc(CN2CCCCCC2)c2c(F)cccc21
inhibition of growth at 10 µM [1]: 99% | MIC50 [2]: 7 µM (≈ 2.9 µg/mL) | MIC90 [2]: 10 µM (≈ 4.15 µg/mL)

CCCCCCCCn1cc(CN2CCCCC2)c2cc(F)ccc21
inhibition of growth at 10 µM [1]: 99% | MIC50 [2]: 6 µM (≈ 2.07 µg/mL) | MIC90 [2]: 11 µM (≈ 3.79 µg/mL)

CC(C)=CCC/C(C)=C/Cn1cc(CN2CCCCCC2)c2cc(F)ccc21
inhibition of growth at 10 µM [1]: 99% | MIC50 [2]: 4 µM (≈ 1.53 µg/mL) | MIC90 [2]: 7 µM (≈ 2.68 µg/mL)

CCCCCCCCn1cc(CN(CC)CCC)c2cc(F)ccc21
inhibition of growth at 10 µM [1]: 99% | MIC50 [2]: 7 µM (≈ 2.43 µg/mL) | MIC90 [2]: 39 µM (≈ 13.5 µg/mL)

CC(C)=CCC/C(C)=C/Cn1cc(CN2CCSCC2)c2cc(F)ccc21
inhibition of growth at 10 µM [1]: 99% | MIC50 [2]: 15 µM (≈ 5.8 µg/mL) | MIC90 [2]: 23 µM (≈ 8.89 µg/mL)

CCCCCCCCn1cc(CNC23CC4CC(CC(C4)C2)C3)c2ccc(OC)cc21
inhibition of growth at 10 µM [1]: 99% | MIC50 [2]: 3 µM (≈ 1.27 µg/mL) | MIC90 [2]: 6 µM (≈ 2.54 µg/mL)

CCCCCCCCn1cc(CN2CCCCC2)c2cccc(OC)c21
inhibition of growth at 10 µM [1]: 99% | MIC50 [2]: 8 µM (≈ 2.85 µg/mL) | MIC90 [2]: 11 µM (≈ 3.92 µg/mL)

CCCCCCCCn1cc(CN(C)CCC)c2cc(F)ccc21
inhibition of growth at 10 µM [1]: 99% | MIC50 [2]: 12 µM (≈ 3.99 µg/mL) | MIC90 [2]: 35 µM (≈ 11.6 µg/mL)

CCCCN(CCCC)Cc1cn(C/C=C(\C)CCC=C(C)C)c2ccc(F)cc12
inhibition of growth at 10 µM [1]: 99% | MIC50 [2]: 13 µM (≈ 5.36 µg/mL) | MIC90 [2]: 25.5 µM (≈ 10.5 µg/mL)

CCCCCCCCn1cc(CN2CCSCC2)c2cc(F)ccc21
inhibition of growth at 10 µM [1]: 99% | MIC50 [2]: 11 µM (≈ 3.99 µg/mL) | MIC90 [2]: > 50 µM

CCCCCCCCn1cc(CNC23CC4CC(CC(C4)C2)C3)c2c(F)cccc21
inhibition of growth at 10 µM [1]: 99% | MIC50 [2]: 2 µM (≈ 0.821 µg/mL) | MIC90 [2]: 3 µM (≈ 1.23 µg/mL)

N#CCCCn1cc(CN2CCCCC2)c2cc(F)ccc21
inhibition of growth at 10 µM [1]: 99% | MIC50 [2]: > 50 µM | MIC90 [2]: > 50 µM

CCCCCCCCn1cc(CN(C)C)c2cc(F)ccc21
inhibition of growth at 10 µM [1]: 99% | MIC50 [2]: 14 µM (≈ 4.26 µg/mL) | MIC90 [2]: 20 µM (≈ 6.09 µg/mL)

CCCCCCCCCCn1cc(CN2CCCCCC2)c2c(F)cccc21
inhibition of growth at 10 µM [1]: 99% | MIC50 [2]: 10 µM (≈ 3.87 µg/mL) | MIC90 [2]: 15 µM (≈ 5.8 µg/mL)

CCCCCCCCn1cc(CN2CCC(C)CC2)c2ccc(F)cc21
inhibition of growth at 10 µM [1]: 99% | MIC50 [2]: 4 µM (≈ 1.43 µg/mL) | MIC90 [2]: 5 µM (≈ 1.79 µg/mL)

CCCCCCCCn1cc(CN2CCCCC2)c2ccc(OC)cc21
inhibition of growth at 10 µM [1]: 99% | MIC50 [2]: 7 µM (≈ 2.5 µg/mL) | MIC90 [2]: 13 µM (≈ 4.64 µg/mL)

CCCCCCCCn1cc(CN2CCC(C)CC2)c2cc(F)ccc21
inhibition of growth at 10 µM [1]: 99% | MIC50 [2]: 4 µM (≈ 1.43 µg/mL) | MIC90 [2]: 6 µM (≈ 2.15 µg/mL)

CC(C)=CCC/C(C)=C/Cn1ccc2cc(F)ccc21
inhibition of growth at 10 µM [1]: 99% | MIC50 [2]: > 50 µM | MIC90 [2]: > 50 µM

COc1ccc2c(c1)c(CN1CCCCC1)cn2C/C=C(\C)CCC=C(C)C
inhibition of growth at 10 µM [1]: 99% | MIC50 [2]: 9 µM (≈ 3.43 µg/mL) | MIC90 [2]: 12 µM (≈ 4.57 µg/mL)

CCCCCCCCn1cc(CN(CC)CC)c2cc(F)ccc21
inhibition of growth at 10 µM [1]: 99% | MIC50 [2]: 10 µM (≈ 3.33 µg/mL) | MIC90 [2]: 36 µM (≈ 12 µg/mL)

CC(C)=CCC/C(C)=C/Cn1cc(CN2CCS(=O)(=O)CC2)c2cc(F)ccc21
inhibition of growth at 10 µM [1]: 99% | MIC50 [2]: > 50 µM | MIC90 [2]: > 50 µM

CCN1CCN(Cc2cn(C/C=C(\C)CCC=C(C)C)c3ccc(F)cc23)CC1
inhibition of growth at 10 µM [1]: 99% | MIC50 [2]: 13 µM (≈ 5.17 µg/mL) | MIC90 [2]: 25 µM (≈ 9.94 µg/mL)

CCCCCCCCn1cc(CN(CCCC)CCCC)c2cc(F)ccc21
inhibition of growth at 10 µM [1]: 99% | MIC50 [2]: 11 µM (≈ 4.27 µg/mL) | MIC90 [2]: > 50 µM

CCCCNC(=O)Cn1cc(CN2CCCCC2)c2cc(F)ccc21
inhibition of growth at 10 µM [1]: 99% | MIC50 [2]: > 50 µM | MIC90 [2]: > 50 µM

CCCCCCCCn1cc(CN2CCC(C)CC2)c2cccc(OC)c21
inhibition of growth at 10 µM [1]: 99% | MIC50 [2]: 4 µM (≈ 1.48 µg/mL) | MIC90 [2]: 8 µM (≈ 2.96 µg/mL)
